Source: publication PMC3028607

Test: SmI2-mediated 8-endo-trig ketyl-alkene radical cyclisation (C-C bond between ketone carbon and distal styrene carbon); SmI2 2.2 equiv, HMPA 18 equiv, t-BuOH 2 equiv; substrate added over 2 h, then 16 h
Details: THF, 15.0 mM, 22.0 °C

COC(=O)C1Cc2ccccc2CC(C)(C)C(C)(O)C1 (stereo not shown) [41 (no 8-ring; ketyl-aryl 42 14% + 43 7%)]
ring closure, isolated yield (from COC(=O)C(CC(C)=O)Cc1ccccc1C=C(C)C, 8-membered ring): 0%

COC(=O)[C@@H]1Cc2ccccc2CC(C)C2(O)CCCC[C@@H]12 (stereo partly shown)
ring closure, isolated yield (from C/C=C/c1ccccc1C[C@@H](C(=O)OC)[C@@H]1CCCCC1=O, 8-membered ring): 11%

COC(=O)C1Cc2ccccc2CC(C)C(O)(C(C)C)C1(C)C (stereo not shown) [(E)-1-propenyl analogue of 14 (only fragmentation)]
ring closure, isolated yield (from C/C=C/c1ccccc1CC(C(=O)OC)C(C)(C)C(=O)C(C)C, 8-membered ring): 0%

COC(=O)[C@@H]1Cc2ccccc2CCC2(O)CCCCC[C@@H]12 (stereo partly shown) [5a (to 6; 23% SM recovered)]
ring closure, isolated yield (from C=Cc1ccccc1C[C@@H](C(=O)OC)[C@@H]1CCCCCC1=O, 8-membered ring): 42%

COC(=O)[C@@H]1Cc2ccccc2C(C)CC2(O)CCCC[C@@H]12 (stereo partly shown) [7a (to 8)]
ring closure, isolated yield (from C=C(C)c1ccccc1C[C@@H](C(=O)OC)[C@@H]1CCCCC1=O, 8-membered ring): 63%

COC(=O)C1Cc2ccccc2C(C)CC(C)(O)C1 (stereo not shown) [4 (to 9 40% + 10 38%)]
ring closure, isolated yield (from C=C(C)c1ccccc1CC(CC(C)=O)C(=O)OC, 8-membered ring): 78%

COC(=O)C1Cc2ccccc2C(c2ccccc2)CC(O)(C(C)C)C1 (stereo not shown) [16 (to 17a 37% + 17b 22%)]
ring closure, isolated yield (from C=C(c1ccccc1)c1ccccc1CC(CC(=O)C(C)C)C(=O)OC, 8-membered ring): 59%

COC(=O)C1Cc2ccccc2C(C)CC(O)(C(C)C)C1(C)C (stereo not shown) [14 (only fragmentation 15, 58%)]
ring closure, isolated yield (from C=C(C)c1ccccc1CC(C(=O)OC)C(C)(C)C(=O)C(C)C, 8-membered ring): 0%

COC(=O)[C@@H]1Cc2ccccc2CCC2(O)CCCCC[C@H]12 (stereo partly shown) [5b (no product; 62% SM recovered)]
ring closure, isolated yield (from C=Cc1ccccc1C[C@@H](C(=O)OC)[C@H]1CCCCCC1=O, 8-membered ring): 0%

COC(=O)C1Cc2ccccc2CC(C)C(O)(C(C)C)C1 (stereo not shown) [24 (to 25)]
ring closure, isolated yield (from C/C=C/c1ccccc1CC(CC(=O)C(C)C)C(=O)OC, 8-membered ring): 63%

COC(=O)C1Cc2ccccc2CC(C2CC2)C(O)(C(C)C)C1 (stereo not shown) [33 (to 34; 47% fragmentation 35)]
ring closure, isolated yield (from COC(=O)C(CC(=O)C(C)C)Cc1ccccc1/C=C/C1CC1, 8-membered ring): 24%

COC(=O)C1Cc2ccccc2CC(C)C(O)(C(C)C)C1 (stereo not shown) [30 (to 31; 31% fragmentation 32; 32% SM)]
ring closure, isolated yield (from C/C=C\c1ccccc1CC(CC(=O)C(C)C)C(=O)OC, 8-membered ring): 8%

COC(=O)C1Cc2ccccc2CC(c2ccccc2)C(O)(C(C)C)C1 (stereo not shown) [36 (to 37; 20% SM)]
ring closure, isolated yield (from COC(=O)C(CC(=O)C(C)C)Cc1ccccc1/C=C/c1ccccc1, 8-membered ring): 47%

COC(=O)[C@@H]1Cc2ccccc2CC(C)C2(O)CCCC[C@H]12 (stereo partly shown) [26b (to lactone 29; 27% fragmentation 23; 40% SM)]
ring closure, isolated yield (from C/C=C/c1ccccc1C[C@@H](C(=O)OC)[C@H]1CCCCC1=O, 8-membered ring): 9%

COC(=O)[C@@H]1Cc2ccccc2CC(c2ccccc2)C2(O)CCCC[C@H]12 (stereo partly drawn) [38b (no 8-ring; 7-exo lactone 40, 63%)]
ring closure, isolated yield (from COC(=O)[C@H](Cc1ccccc1/C=C/c1ccccc1)[C@H]1CCCCC1=O, 8-membered ring): 0%

CCC1(O)CC(C(=O)OC)Cc2ccccc2CC1C (stereo not shown) [21 (to 22; 6% fragmentation 23)]
ring closure, isolated yield (from C/C=C/c1ccccc1CC(CC(=O)CC)C(=O)OC, 8-membered ring): 56%

COC(=O)C1Cc2ccccc2C(C)CC(O)(C(C)C)C1 (stereo not shown) [11 (to 12 54% + 13 28%)]
ring closure, isolated yield (from C=C(C)c1ccccc1CC(CC(=O)C(C)C)C(=O)OC, 8-membered ring): 82%

COC(=O)[C@@H]1Cc2ccccc2CC(c2ccccc2)C2(O)CCCC[C@@H]12 (stereo partly drawn) [38a (no 8-ring; 7-exo product 39, 44%)]
ring closure, isolated yield (from COC(=O)[C@H](Cc1ccccc1/C=C/c1ccccc1)[C@@H]1CCCCC1=O, 8-membered ring): 0%

COC(=O)C1Cc2ccccc2CC(C)C(C)(O)C1 (stereo not shown) [18 (to 19; 20% ketyl-aryl product 20)]
ring closure, isolated yield (from C/C=C/c1ccccc1CC(CC(C)=O)C(=O)OC, 8-membered ring): 54%
